# From ChEMBL document CHEMBL1125524, “Adenosine A1 antagonists. 2. Structure-activity relationships on diuretic activities and protective effects against acute renal failure” (J Med Chem, 1992)
# Several values for one entry are separate records, joined by “and”; a condition that tells them apart may be missing. Equal entries are not always repeated.
# Experiments:
# [1] = test system: Rattus norvegicus; test: Serum creatinine concentration measured after intraperitoneal administration of 1 mg/kg of compound to rats(vehicle 4.5+/-0.24); type: functional
# [2] = test system: Rattus norvegicus; test: Serum creatinine concentration measured after intraperitoneal administration of 0.1 mg/kg of compound to rats(vehicle 5.43+/-0.11); type: functional
# [3] = test system: Rattus norvegicus; test: Effect on urinary excretion potassium and sodium after oral administration of 0.01 mg/kg to rats(potassium and sodium excretion in control rat is 0.180+/-0.017); type: functional, Urine
# [4] = test system: Rattus norvegicus; test: Effect on urinary excretion potassium and sodium after oral administration of 0.1 mg/kg to rats(potassium and sodium excretion in control rat is 0.147+/-0.015); type: functional, Urine
# [5] = test system: Rattus norvegicus; test: Effect on urinary excretion potassium and sodium after oral administration of 0.4 mg/kg to rats(potassium and sodium excretion in control rat is 0.0.169+/-0.012); type: functional, Urine
# [6] = test system: Rattus norvegicus; test: Ratio of urinary excretion value (urinary volume) in treated rats to that in control rats, at a peroral dose of 0.1 mg/Kg; type: functional, Urine
# [7] = test system: Rattus norvegicus; test: Ratio of urinary excretion value (urinary volume) in treated rats to that in control rats, at a peroral dose of 0.4 mg/Kg; type: functional, Urine
# [8] = test system: Rattus norvegicus; test: Ratio of urinary excretion value (urinary volume) in treated rats to that in control rats, at a peroral dose of 1.6 mg/Kg; type: functional, Urine
# [9] = test system: Rattus norvegicus; test: Urea nitrogen concentration measured after intraperitoneal administration of 1 mg/kg of compound to rats(vehicle 151.5+/-7.4); type: functional
# [10] = test system: Rattus norvegicus; test: Ratio of sodium ion/potassium ion concentration in treated rats to that in control rats, at a peroral dose of 0.01 mg/Kg; type: functional
# [11] = test system: Rattus norvegicus; test: Ratio of sodium ion/potassium ion concentration in treated rats to that in control rats, at a peroral dose of 0.1 mg/Kg; type: functional
# [12] = test system: Rattus norvegicus; test: Ratio of sodium ion/potassium ion concentration in treated rats to that in control rats, at a peroral dose of 0.4 mg/Kg; type: functional
# [13] = test system: Rattus norvegicus; test: Ratio of sodium ion/potassium ion concentration in treated rats to that in control rats, at a peroral dose of 1.6 mg/Kg; type: functional
# [14] = test system: Rattus norvegicus; test: Ratio of urinary excretion value (Na+ concentration) in treated rats to that in control rats, at a peroral dose of 0.01 mg/Kg; type: functional, Urine
# [15] = test system: Rattus norvegicus; test: Ratio of urinary excretion value (Na+ concentration) in treated rats to that in control rats, at a peroral dose of 0.1 mg/Kg; type: functional, Urine
# [16] = test system: Rattus norvegicus; test: Ratio of urinary excretion value (Na+ concentration) in treated rats to that in control rats, at a peroral dose of 0.4 mg/Kg; type: functional, Urine
# [17] = test system: Rattus norvegicus; test: Ratio of urinary excretion value (Na+ concentration) in treated rats to that in control rats, at a peroral dose of 1.6 mg/Kg; type: functional, Urine
# [18] = test system: Rattus norvegicus; test: Ratio of urinary excretion value (urinary volume) in treated rats to that in control rats, at a peroral dose of 0.01 mg/Kg; type: functional, Urine
# [19] = organism: Rattus norvegicus; test: Percent inhibition of serum creatinine by the compound given as ratio of Cr value in treated to vehicle treated ones; type: functional
# [20] = test system: Rattus norvegicus; test: Effect on urinary excretion potassium and sodium after oral administration of 1.6 mg/kg to rats(potassium and sodium excretion in control rat is 0.189+/-0.005); type: functional, Urine
# [21] = test system: Rattus norvegicus; test: Oral diuretic activity was measured after oral administration of 0.4 mg/kg to rats(control volume is 0.97+/-0.05); type: functional, Urine
# [22] = test system: Rattus norvegicus; test: Oral diuretic activity was measured after oral administration of 0.01 mg/kg to rats(control volume is 1.05+/-0.11); type: functional, Urine
# [23] = test system: Rattus norvegicus; test: Oral diuretic activity was measured after oral administration of 0.1 mg/kg to rats(control volume is 0.96+/-0.09); type: functional, Urine
# [24] = test system: Rattus norvegicus; test: Urea nitrogen concentration measured after intraperitoneal administration of 0.1 mg/kg of compound to rats(vehicle 141.3+/-8.3); type: functional
# [25] = test system: Rattus norvegicus; test: Oral diuretic activity was measured after oral administration of 1.6 mg/kg to rats(control volume is 1.12+/-0.05); type: functional, Urine
# [26] = biological target: Adenosine A2 receptor (Rattus norvegicus, UniProt P29276+P30543)
# [27] = test system: Rattus norvegicus; test: Serum creatinine concentration measured after intraperitoneal administration of 1 mg/kg of compound to rats(vehicle 4.41+/-0.17); type: functional
# [28] = test system: Rattus norvegicus; test: Effect on urinary excretion potassium and sodium after oral administration of 0.4 mg/kg to rats(potassium and sodium excretion in control rat is 0.261+/-0.0087); type: functional, Urine
# [29] = test system: Rattus norvegicus; test: Urea nitrogen concentration measured after intraperitoneal administration of 1 mg/kg of compound to rats(vehicle 147.9+/-6.1); type: functional
# [30] = test system: Rattus norvegicus; test: Percent inhibition of serum creatinine by the compound given as ratio of Cr value in treated to vehicle treated ones after intraperitoneal administration of 1 mg/kg of compound to rats(vehicle 4.41+/-0.17); type: functional; conditions: ip
# [31] = test system: Rattus norvegicus; test: Effect on urinary excretion potassium and sodium after oral administration of 25 mg/kg to rats(potassium and sodium excretion in control rat is 0.252+/-0.022); type: functional, Urine
# [32] = test system: Rattus norvegicus; test: Ratio of urinary excretion value (urinary volume) in treated rats to that in control rats, at a peroral dose of 25 mg/Kg; type: functional, Urine
# [33] = test system: Rattus norvegicus; test: Ratio of urinary excretion value (Na+ concentration) in treated rats to that in control rats, at a peroral dose of 25 mg/Kg; type: functional, Urine
# [34] = test system: Rattus norvegicus; test: Ratio of urinary excretion value (Na+ concentration) in treated rats to that in control rats, at a peroral dose of 6.25 mg/Kg; type: functional, Urine
# [35] = test system: Rattus norvegicus; test: Oral diuretic activity was measured after oral administration of 25 mg/kg to rats(control volume is […]+/-[…]); type: functional, Urine
# [36] = test system: Rattus norvegicus; test: Oral diuretic activity was measured after oral administration of 0.4 mg/kg to rats(control volume is […]+/-[…]); type: functional, Urine
# [37] = test system: Rattus norvegicus; test: Percent inhibition of Urea nitrogen by the compound given as ratio of UN value in treated to vehicle treated ones after intraperitoneal administration of 1 mg/kg of compound to rats(vehicle 147.9+/-6.1); type: functional; conditions: ip
# [38] = test system: Rattus norvegicus; test: Ratio of urinary excretion value (urinary volume) in treated rats to that in control rats, at a peroral dose of 6.25 mg/Kg; type: functional, Urine
# [39] = biological target: T1, Adenosine receptor A1 (Cavia porcellus, UniProt P47745)
# T1 sequence (P47745 whole entry): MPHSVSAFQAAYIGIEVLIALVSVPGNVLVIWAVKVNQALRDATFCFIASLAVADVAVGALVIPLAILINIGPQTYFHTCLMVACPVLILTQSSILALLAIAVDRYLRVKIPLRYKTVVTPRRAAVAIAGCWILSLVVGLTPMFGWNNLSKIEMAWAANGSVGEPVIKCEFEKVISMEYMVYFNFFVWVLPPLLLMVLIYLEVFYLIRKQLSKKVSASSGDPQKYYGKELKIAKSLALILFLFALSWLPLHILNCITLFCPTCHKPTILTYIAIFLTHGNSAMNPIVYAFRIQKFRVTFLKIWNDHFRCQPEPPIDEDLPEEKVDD
# Description: Binding affinity against adenosine A1 receptor in guinea pig forebrain membranes using N6-[3H]cyclohexyladenosine as radioligand
structure (smiles),measurement,setting,value
CCCCn1c(=O)c2nc(C34CC5CC(CC3C5)C4)[nH]c2n(CCCC)c1=O,Cr,[1],2.82 mg/dL
same,Cr,[2],2.63 mg/dL
same,Na,[3],0.176 m equiv 6hr-1 100g-1
same,Na,[4],0.279 m equiv 6hr-1 100g-1
same,Na,[5],0.412 m equiv 6hr-1 100g-1
same,T/C,[6],1.83
same,T/C,[7],2.58
same,T/C,[8],2.25
same,UN,[9],62.1 mg/dL
same,Na+/K+,[10],1.05
same,Na+/K+,[11],1.58
same,Na+/K+,[12],1.89
same,Na+/K+,[13],1.61
same,T/C,[14],0.98
same,T/C,[15],1.89
same,T/C,[16],2.45
same,T/C,[17],2.26
same,T/C,[18],0.74
same,Inhibition,[19],45% and 19%
same,Na,[20],0.426 m equiv 6hr-1 100g-1
same,Urine volume,[21],2.5 ml 6hr-1 100g-1
same,Urine volume,[22],0.78 ml 6hr-1 100g-1
same,Urine volume,[23],1.76 ml 6hr-1 100g-1
same,UN,[24],119.4 mg/dL
same,Urine volume,[25],2.52 ml 6hr-1 100g-1
same,Ki,[26],1100 nM
CCCn1c(=O)c2nc(C3CC4C=CC3C4)[nH]c2n(CCC)c1=O (stereo in doubt; 17),Cr,[27],2.08 mg/dL
same,Na,[28],0.233 m equiv 6hr-1 100g-1
same,UN,[29],80.4 mg/dL
same,inhibition in vivo at 1 mg/kg,[30],53%
same,Na,[31],0.434 m equiv 6hr-1 100g-1
same,T/C,[7],0.93
same,T/C,[32],2.06
same,Na+/K+,[12],0.98
same,T/C,[16],0.89
same,T/C,[33],1.72
same,T/C,[34],2.51
same,Urine volume,[35],2.47 ml 6hr-1 100g-1
same,Urine volume,[36],1.32 ml 6hr-1 100g-1
same,inhibition in vivo at 1 mg/kg,[37],56%
same,T/C,[38],2.56
same,Ki,[39],4.3 nM
same,Ki,[26],480 nM
